One may read the inhibition as the percentage by which the read-out fell short of the control. Read a high inhibition as strong suppression. A word on the IC50: it is the concentration that inhibits the measured activity by half. Higher therefore signals lower potency.

The target in the first assay is T1, Tyrosinase (Agaricus bisporus) (UniProt O42713).
T1 sequence (whole entry): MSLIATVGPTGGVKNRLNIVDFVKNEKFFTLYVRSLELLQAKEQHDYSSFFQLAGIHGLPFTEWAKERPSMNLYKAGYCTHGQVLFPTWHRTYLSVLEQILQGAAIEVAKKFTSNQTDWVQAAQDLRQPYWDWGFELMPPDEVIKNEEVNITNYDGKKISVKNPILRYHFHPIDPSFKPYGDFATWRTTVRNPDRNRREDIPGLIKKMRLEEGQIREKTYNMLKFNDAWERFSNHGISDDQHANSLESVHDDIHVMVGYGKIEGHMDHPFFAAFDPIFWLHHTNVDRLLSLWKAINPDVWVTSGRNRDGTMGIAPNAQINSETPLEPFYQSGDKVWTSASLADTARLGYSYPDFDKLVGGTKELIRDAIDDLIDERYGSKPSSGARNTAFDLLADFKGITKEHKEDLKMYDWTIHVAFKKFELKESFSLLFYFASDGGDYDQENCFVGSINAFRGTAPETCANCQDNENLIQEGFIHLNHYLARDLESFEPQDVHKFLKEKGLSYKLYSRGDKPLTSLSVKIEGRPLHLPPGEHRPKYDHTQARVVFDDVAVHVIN
Description: Inhibition of mushroom tyrosinase at 0.10 mM.
The compound `NC(=S)N/N=C(/C(=O)c1ccccc1)c1ccccc1` gave an inhibition of 47%.

In the next assay the target is T2, Tyrosinase (Agaricus bisporus, UniProt O42713).
T2 sequence (O42713 whole entry): T1 sequence (whole entry)
`COc1ccc(C(C)=O)cc1` [P-METHOXY-ACETOPHENONE] gave an IC50 of 2000 µM.
The compound `C/C(=N/NC(N)=S)c1cccs1` had an IC50 of 0.14 µM.
In turn, `C/C(=N/NC(N)=S)c1ccc(F)cc1` yielded an IC50 of 0.17 µM.
Compound `C/C(=N/NC(N)=S)c1ccc(O)cc1O` had an IC50 of 0.58 µM.
Same read-out and setting: the same measure for `COc1ccc(/C(C)=N\NC(N)=S)cc1`: 0.11 µM; for `C/C(=N/NC(N)=S)c1ccc(Br)cc1`: 0.52 µM; for `C/C(=N/NC(N)=S)c1ccc(C(C)C)cc1`: 1 µM.
On to `COc1ccc(/C=C/C(=O)O)cc1` [4-METHOXYCINNAMIC ACID], for which half-maximal inhibition (IC50) was put at 410 µM.
On the same count and under the same terms, the same measure for `COc1ccc(C/C(C)=N\NC(N)=S)cc1`: 0.42 µM; for `NC(=S)N/N=C(/C(=O)c1ccccc1)c1ccccc1`: 100 µM; for `C/C(=N/NC(N)=S)c1cccnc1`: 0.82 µM.
In turn, `C/C(=N/NC(N)=S)c1ccc(O)cc1` returned a concentration for half-maximal inhibition (IC50) of 0.31 µM.
The same measure, in the same setting: the same measure for `CC(=O)c1ccc(F)cc1`: 990 µM; for `C/C(=N/NC(N)=S)c1ccccc1` [ACETOPHENONE-THIOSEMICARBAZONE]: 0.34 µM; for `O=c1cccccc1O` [TROPOLONE]: 0.4 µM.
`C/C(=N/NC(N)=S)c1cnccn1` came in with an IC50 of 0.88 µM.
`NNC(N)=S` [THIOSEMICARBAZIDE] showed an IC50 of 2000 µM.
Compound `C/C(=N/NC(N)=S)c1ccc(/C(C)=N\NC(N)=S)cc1` came in with an IC50 of 0.15 µM.
The compound `C/C(CCc1ccc(O)cc1)=N/NC(N)=S` yielded a 50% inhibitory concentration (IC50) of 0.54 µM.
In turn, `C/C(=N/NC(N)=S)c1ccc(C)cc1` showed an IC50 of 0.27 µM.
As for `NC(=S)N/N=C(\c1ccccc1)C(O)c1ccccc1` (stereo unspecified), the IC50 turned out to be 55.5 µM.
For the compound `C/C(=N/NC(N)=S)c1c(O)cc(O)cc1O`, the IC50 was found to be 22 µM.
On the same count and under the same terms, the same measure for `CC(=O)c1ccccc1` [ACETOPHENONE]: 850 µM.

A further assay deals with T1, Tyrosinase (Agaricus bisporus). Description: Inhibition of mushroom tyrosinase at 2 mM.
Take `COc1ccc(C(C)=O)cc1` [P-METHOXY-ACETOPHENONE]: the inhibition worked out at 47.2%.
In turn, `NNC(N)=S` [THIOSEMICARBAZIDE] displayed an inhibition of 39.9%.
